For eleven compounds, T/C results are on record in PubChem BioAssay AID256 (DTP/NCI, 2004).

For the experiment, the system named is CD2F1 mice, L1210 leukemia ip, survival T/C. Put plainly: NCI In Vivo Anticancer Drug Screen. Data for tumor model L1210 Leukemia (intraperitoneal) in CD2F1 (CDF1) mice. The following applies: higher = longer survival. The gist of the method: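 Each value reflects a quotient of treated over vehicle control outcomes in mice with a transplanted tumor.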
The mark [1] stands for this setting: endpoint: mean survival time, dose: 12.5 mg/kg/injection, schedule: Q04DX003 (ip), vehicle: saline.
Setting [2] is: endpoint: mean survival time, dose: 25.0 mg/kg/injection, schedule: Q01DX009 (ip), vehicle: saline.
Setting [3] is: endpoint: mean survival time, dose: 25.0 mg/kg/injection, schedule: Q04DX003 (ip), vehicle: saline.
Setting [4] is: endpoint: mean survival time, dose: 50.0 mg/kg/injection, schedule: Q04DX003 (ip), vehicle: saline.
Where [5] appears, read: endpoint: mean survival time, dose: 100.0 mg/kg/injection, schedule: Q01DX009 (ip), vehicle: saline.
[6] abbreviates: endpoint: mean survival time, dose: 200.0 mg/kg/injection, schedule: Q01DX009 (ip), vehicle: saline.
[7] abbreviates: endpoint: mean survival time, dose: 400.0 mg/kg/injection, schedule: Q01DX009 (ip), vehicle: saline.
Setting [8] is: endpoint: mean survival time, dose: 100.0 mg/kg/injection, schedule: Q04DX003 (ip), vehicle: saline with Tween-80.
Setting [9] is: endpoint: mean survival time, dose: 200.0 mg/kg/injection, schedule: Q04DX003 (ip), vehicle: saline with Tween-80.
The mark [10] stands for this setting: endpoint: mean survival time, dose: 100.0 mg/kg/injection, schedule: Q01DX001 (ip), vehicle: saline with Tween-80.
[11] abbreviates: endpoint: mean survival time, dose: 200.0 mg/kg/injection, schedule: Q01DX001 (ip), vehicle: saline with Tween-80.
Setting [12] is: endpoint: mean survival time, dose: 400.0 mg/kg/injection, schedule: Q01DX001 (ip), vehicle: saline with Tween-80.

SMILES strings stand for the structures. “And” between values parts separate entries of the source, which are not always exact repeats. Identical values can stand only once. Toxic doses and inconclusive results are not listed.

Regarding `CN(C)CCCN1c2ccccc2Sc2ccc(C(F)(F)F)cc21`, the T/C was 106 % of control (endpoint: mean survival time, dose: 12.5 mg/kg/injection, schedule: Q01DX009 (ip), vehicle: saline); 100 % of control under setting [1]; 103 % of control (endpoint: mean survival time, dose: 16.5 mg/kg/injection, schedule: Q01DX009 (ip), vehicle: saline with Tween-80); 100 % of control (endpoint: mean survival time, dose: 25.0 mg/kg/injection, schedule: Q01DX001 (ip), vehicle: saline); 88 % of control (endpoint: mean survival time, dose: 25.0 mg/kg/injection, schedule: Q01DX009 (ip), vehicle: saline with Tween-80); 120 % of control under setting [2]. Besides, the T/C was 115 % of control under setting [3]; 94 % of control (endpoint: mean survival time, dose: 37.5 mg/kg/injection, schedule: Q01DX009 (ip), vehicle: saline with Tween-80); 104 % of control (endpoint: mean survival time, dose: 50.0 mg/kg/injection, schedule: Q01DX001 (ip), vehicle: saline); 118 % of control under setting [4].

`Cc1ccc2c(c1)C1(C)OC(C=CC1=O)O2` (centres undefined): the T/C by setting is: (endpoint: median survival time, dose: 3.12 mg/kg/injection, schedule: Q01DX005 (ip), vehicle: Klucel (hydroxypropylcellulose) (HPC)) 106 % of control; (endpoint: median survival time, dose: 6.25 mg/kg/injection, schedule: Q01DX005 (ip), vehicle: Klucel (hydroxypropylcellulose) (HPC)) 101 % of control; (endpoint: median survival time, dose: 12.5 mg/kg/injection, schedule: Q01DX005 (ip), vehicle: Klucel (hydroxypropylcellulose) (HPC)) 105 % of control; (endpoint: median survival time, dose: 25.0 mg/kg/injection, schedule: Q01DX005 (ip), vehicle: Klucel (hydroxypropylcellulose) (HPC)) 101 % of control and 105 % of control; (endpoint: median survival time, dose: 50.0 mg/kg/injection, schedule: Q01DX005 (ip), vehicle: Klucel (hydroxypropylcellulose) (HPC)) 103 % of control.

For the compound `NC(CSCc1cccs1)C(=O)O` (centres undefined), the T/C reads like this: under setting [2], 94 % of control; (endpoint: mean survival time, dose: 50.0 mg/kg/injection, schedule: Q01DX009 (ip), vehicle: saline) 100 % of control; under setting [5], 90 % of control; under setting [6], 101 % of control; under setting [7], 95 % of control.

For the compound `Cc1ccc(C)c(C(O)C2CC2)c1` (centres undefined), the T/C is 96 % of control under setting [5], 100 % of control under setting [6] and 102 % of control under setting [7].

Regarding `O=CC(O)C(O)C(O)C(O)C(=O)O.[NH-]C1CCCCC1[NH-].[Pt+2]` (centres undefined), the T/C reads like this: (endpoint: mean survival time, dose: 0.78 mg/kg/injection, schedule: Q01DX005 (ip), vehicle: saline) 156 % of control; (endpoint: mean survival time, dose: 1.56 mg/kg/injection, schedule: Q01DX005 (ip), vehicle: saline) 203 % of control; (endpoint: mean survival time, dose: 1.56 mg/kg/injection, schedule: Q01DX009 (ip), vehicle: saline) 160 % of control; (endpoint: mean survival time, dose: 3.12 mg/kg/injection, schedule: Q01DX005 (ip), vehicle: saline) 266 % of control; (endpoint: mean survival time, dose: 3.12 mg/kg/injection, schedule: Q04DX003 (ip), vehicle: saline) 150 % of control; (endpoint: mean survival time, dose: 3.13 mg/kg/injection, schedule: Q01DX009 (ip), vehicle: saline) 200 % of control. In addition, the T/C (endpoint: mean survival time, dose: 6.25 mg/kg/injection, schedule: Q01DX005 (ip), vehicle: saline) is 300 % of control; the T/C (endpoint: mean survival time, dose: 6.25 mg/kg/injection, schedule: Q01DX009 (ip), vehicle: saline) is 167 % of control; the T/C (endpoint: mean survival time, dose: 6.25 mg/kg/injection, schedule: Q04DX003 (ip), vehicle: saline) was 280 % of control; the T/C (endpoint: mean survival time, dose: 12.5 mg/kg/injection, schedule: Q01DX005 (ip), vehicle: saline) was 103 % of control; the T/C under setting [1] is 301 % of control; the T/C under setting [3] was 231 % of control and 259 % of control. Moreover, the T/C under setting [4] was 108 % of control; the T/C (endpoint: median survival time, dose: 1.02 mg/kg/injection, schedule: Q01DX009 (ip), vehicle: saline) is 160 % of control and 170 % of control; the T/C (endpoint: median survival time, dose: 1.37 mg/kg/injection, schedule: Q01DX009 (ip), vehicle: saline) was 170 % of control and 180 % of control; the T/C (endpoint: median survival time, dose: 1.56 mg/kg/injection, schedule: Q01DX009 (ip), vehicle: saline) was 236 % of control; the T/C (endpoint: median survival time, dose: 2.09 mg/kg/injection, schedule: Q01DX009 (ip), vehicle: saline) is 189 % of control and 714 % of control; the T/C (endpoint: median survival time, dose: 3.12 mg/kg/injection, schedule: Q01DX009 (ip), vehicle: saline) is 188 % of control and 253 % of control and 261 % of control. For the same compound, the T/C is 119 % of control (endpoint: median survival time, dose: 6.25 mg/kg/injection, schedule: Q01DX009 (ip), vehicle: saline); 101 % of control (endpoint: median survival time, dose: 6.25 mg/kg/injection, schedule: Q04DX003 (ip), vehicle: saline); 90 % of control (endpoint: median survival time, dose: 12.5 mg/kg/injection, schedule: Q01DX009 (ip), vehicle: saline); 100 % of control (endpoint: median survival time, dose: 12.5 mg/kg/injection, schedule: Q04DX003 (ip), vehicle: saline); 123 % of control (endpoint: median survival time, dose: 12.5 mg/kg/injection, schedule: Q04DX003 (iv), vehicle: saline); 103 % of control (endpoint: median survival time, dose: 25.0 mg/kg/injection, schedule: Q04DX003 (ip), vehicle: saline). Besides, the T/C is 365 % of control (endpoint: median survival time, dose: 50.0 mg/kg/injection, schedule: Q04DX003 (iv), vehicle: saline) and 113 % of control (endpoint: median survival time, dose: 100.0 mg/kg/injection, schedule: Q04DX003 (ip), vehicle: saline).

Consider `Cc1cc(C)c(C(=O)CN2CCOCC2)c(C)c1`, for which the T/C by setting is: under setting [8], 98 % of control; under setting [9], 101 % of control; (endpoint: mean survival time, dose: 400.0 mg/kg/injection, schedule: Q04DX003 (ip), vehicle: saline with Tween-80) 95 % of control.

Turning to `CC(=O)C(C)(NCc1ccccc1)c1ccccc1` (centres undefined), the T/C reads like this: (endpoint: mean survival time, dose: 50.0 mg/kg/injection, schedule: Q01DX009 (ip), vehicle: Klucel (hydroxypropylcellulose) (HPC)) 97 % of control; (endpoint: mean survival time, dose: 100.0 mg/kg/injection, schedule: Q01DX001 (ip), vehicle: other) 100 % of control; (endpoint: mean survival time, dose: 100.0 mg/kg/injection, schedule: Q01DX001 (ip), vehicle: saline) 101 % of control; (endpoint: mean survival time, dose: 100.0 mg/kg/injection, schedule: Q01DX009 (ip), vehicle: Klucel (hydroxypropylcellulose) (HPC)) 100 % of control; (endpoint: mean survival time, dose: 200.0 mg/kg/injection, schedule: Q01DX001 (ip), vehicle: other) 92 % of control; (endpoint: mean survival time, dose: 200.0 mg/kg/injection, schedule: Q01DX001 (ip), vehicle: saline) 95 % of control. Besides, the T/C is, setting by setting: (endpoint: mean survival time, dose: 200.0 mg/kg/injection, schedule: Q01DX009 (ip), vehicle: Klucel (hydroxypropylcellulose) (HPC)) 100 % of control; (endpoint: mean survival time, dose: 400.0 mg/kg/injection, schedule: Q01DX001 (ip), vehicle: other) 107 % of control; (endpoint: mean survival time, dose: 400.0 mg/kg/injection, schedule: Q01DX001 (ip), vehicle: saline) 93 % of control; (endpoint: mean survival time, dose: 400.0 mg/kg/injection, schedule: Q01DX009 (ip), vehicle: Klucel (hydroxypropylcellulose) (HPC)) 106 % of control.

Regarding `CCN(CC)CC(C)(C)CO`, the T/C runs as follows: (endpoint: mean survival time, dose: 50.0 mg/kg/injection, schedule: Q01DX009 (ip), vehicle: saline with Tween-80) 104 % of control; (endpoint: mean survival time, dose: 100.0 mg/kg/injection, schedule: Q01DX009 (ip), vehicle: saline with Tween-80) 95 % of control; under setting [8], 92 % of control; (endpoint: mean survival time, dose: 200.0 mg/kg/injection, schedule: Q01DX009 (ip), vehicle: saline with Tween-80) 98 % of control; under setting [9], 97 % of control.

As for `[CH3][Sn]1([CH3])[O]C2C(CO)OC(n3cnc4c(N)ncnc43)C2[O]1` (centres undefined), the T/C is, setting by setting: (endpoint: mean survival time, dose: 12.5 mg/kg/injection, schedule: Q01DX005 (ip), vehicle: other) 98 % of control; (endpoint: mean survival time, dose: 25.0 mg/kg/injection, schedule: Q01DX005 (ip), vehicle: other) 92 % of control; (endpoint: mean survival time, dose: 50.0 mg/kg/injection, schedule: Q01DX005 (ip), vehicle: other) 97 % of control.

As for `Nc1ncnc2c1ncn2CCC(=O)O`, the T/C runs as follows: under setting [10], 94 % of control; (endpoint: mean survival time, dose: 100.0 mg/kg/injection, schedule: Q04DX002 (ip), vehicle: saline with Tween-80) 105 % of control; under setting [11], 92 % of control; (endpoint: mean survival time, dose: 200.0 mg/kg/injection, schedule: Q04DX002 (ip), vehicle: saline with Tween-80) 97 % of control; under setting [12], 90 % of control; (endpoint: mean survival time, dose: 400.0 mg/kg/injection, schedule: Q04DX002 (ip), vehicle: saline with Tween-80) 105 % of control.

For `O=C1OC2(c3cc(I)c(O)c(I)c3Oc3c2cc(I)c(O)c3I)c2c(Cl)ccc(Cl)c21`, the T/C reads like this: under setting [10], 103 % of control; under setting [11], 87 % of control; under setting [12], 100 % of control.
